Consider eight compounds from ChEMBL document CHEMBL3120118, “Evaluation of 1,2,5-thiadiazoles as modulators of M₁/M₅ muscarinic receptor subtypes” (Bioorg Med Chem, 2014).

Data set [1] addresses T1, Muscarinic acetylcholine receptor M5 (Homo sapiens) (UniProt P08912).
T1 sequence (whole entry): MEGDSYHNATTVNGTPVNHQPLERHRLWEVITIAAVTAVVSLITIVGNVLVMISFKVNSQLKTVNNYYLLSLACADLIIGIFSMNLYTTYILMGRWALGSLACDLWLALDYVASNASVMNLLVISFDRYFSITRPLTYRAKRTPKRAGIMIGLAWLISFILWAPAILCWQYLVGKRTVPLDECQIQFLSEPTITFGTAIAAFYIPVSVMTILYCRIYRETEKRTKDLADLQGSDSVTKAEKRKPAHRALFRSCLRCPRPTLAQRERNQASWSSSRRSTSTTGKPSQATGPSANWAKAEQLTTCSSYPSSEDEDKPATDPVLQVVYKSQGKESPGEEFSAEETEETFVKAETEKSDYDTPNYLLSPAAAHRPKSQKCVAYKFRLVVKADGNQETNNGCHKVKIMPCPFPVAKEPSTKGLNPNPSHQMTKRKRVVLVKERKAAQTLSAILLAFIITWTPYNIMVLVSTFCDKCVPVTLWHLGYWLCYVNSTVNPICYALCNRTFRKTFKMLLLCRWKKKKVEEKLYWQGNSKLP
Kind of data set: Modulation of human muscarinic M5 receptor expressed in mouse A9 L cells assessed as effect on carbachol-induced phosphoinositide metabolism at 1 to 100 uM after 1 hr by topcount analysis. The conditions noted are these: A9L. It is filed as cell-based.

For data set [2], the target named is T2, Muscarinic acetylcholine receptor M1 (Homo sapiens) (UniProt P11229).
T2 sequence (whole entry): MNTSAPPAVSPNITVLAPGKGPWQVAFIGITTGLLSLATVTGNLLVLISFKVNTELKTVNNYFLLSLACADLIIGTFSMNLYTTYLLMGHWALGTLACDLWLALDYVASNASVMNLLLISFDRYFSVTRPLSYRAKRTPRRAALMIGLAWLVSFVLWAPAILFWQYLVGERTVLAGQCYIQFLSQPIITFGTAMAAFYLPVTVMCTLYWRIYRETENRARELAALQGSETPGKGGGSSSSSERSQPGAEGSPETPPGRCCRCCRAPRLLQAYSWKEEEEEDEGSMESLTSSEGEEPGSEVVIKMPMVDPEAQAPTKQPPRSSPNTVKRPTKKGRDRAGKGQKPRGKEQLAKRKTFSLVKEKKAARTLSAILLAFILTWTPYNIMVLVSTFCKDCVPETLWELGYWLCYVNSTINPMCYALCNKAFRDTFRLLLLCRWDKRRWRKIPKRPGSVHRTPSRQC
Kind of data set: Modulation of human muscarinic M1 receptor expressed in mouse A9 L cells assessed as effect on carbachol-induced phosphoinositide metabolism at 1 to 100 uM after 1 hr by topcount analysis. It is filed as cell-based. The conditions noted are these: A9L.

For data set [3], the target named is T2, Muscarinic acetylcholine receptor M1 (Homo sapiens). The experiment in a line: Stimulation of human muscarinic M1 receptor expressed in mouse A9 L cells at 1 to 100 uM after 1 hr by topcount analysis. It is filed as cell-based. The settings on record: A9L.
Data set [4] addresses T1, Muscarinic acetylcholine receptor M5 (Homo sapiens). The experiment in a line: Stimulation of human muscarinic M5 receptor expressed in mouse A9 L cells at 1 to 100 uM after 1 hr by topcount analysis. Format: cell-based. The conditions noted are these: A9L.
For data set [5] the target is unchanged. Kind of data set: Modulation of human muscarinic M5 receptor expressed in mouse A9 L cells assessed as competitive inhibition of carbachol-induced phosphoinositide metabolism by Schild plot analysis. Format: cell-based. The conditions noted are these: A9L.
Data set [6] concerns the target T2, Muscarinic acetylcholine receptor M1 (Homo sapiens). Kind of data set: Modulation of human muscarinic M1 receptor expressed in mouse A9 L cells assessed as effect on carbachol-induced phosphoinositide metabolism at 10 to 300 uM by Schild plot analysis. The conditions noted are these: A9L. It is filed as cell-based.
Data set [7] has the same target. Kind of data set: Modulation of human muscarinic M1 receptor expressed in mouse A9 L cells assessed as effect on carbachol-induced phosphoinositide metabolism at 1 uM by Schild plot analysis. Format: cell-based. The conditions noted are these: A9L.
The target of data set [8] is T1, Muscarinic acetylcholine receptor M5 (Homo sapiens). Kind of data set: Modulation of human muscarinic M5 receptor expressed in mouse A9 L cells assessed as inhibition of carbachol-induced phosphoinositide metabolism at 1 to 100 uM after 1 hr by topcount analysis. Format: cell-based. The settings on record: A9L.
Data set [9] in a line: Solubility of the compound in 50% DMSO. Format: physicochemical.
The target in data set [10] is T1, Muscarinic acetylcholine receptor M5 (Homo sapiens). The experiment in a line: Modulation of human muscarinic M5 receptor expressed in mouse A9 L cells assessed as inhibition of carbachol-induced phosphoinositide metabolism at 100 uM after 1 hr by topcount analysis. Format: cell-based. The settings on record: A9L.
Data set [11] concerns the target T2, Muscarinic acetylcholine receptor M1 (Homo sapiens). Kind of data set: Modulation of human muscarinic M1 receptor expressed in mouse A9 L cells assessed as inhibition of carbachol-induced phosphoinositide metabolism at 100 uM after 1 hr by topcount analysis. Format: cell-based. The conditions noted are these: A9L.

Calls of active or inactive are those of the source. The rule behind the calls is not given here.

For `COc1nsnc1OCCOCCOCCOCCO`, the result in [1], in data set [2], in data set [3] and in data set [4] was inactive.
Regarding `COc1nsnc1OCCN(C)C`, the inhibition result in data set [5] was “Dose-dependent effect”. Also, the outcome in data set [6] was Active. Moreover, the outcome in data set [7], in data set [2], in [3] and in data set [4] was inactive. For the same compound, the inhibition entry in data set [8] is “Active”.
For the compound `COc1nsnc1OCCOCCOCCOc1nsnc1OC`, the solubility entry in data set [9] is “Insoluble”.
Regarding `COc1nsnc1OCCO`, the result in data set [1], in [2], in data set [3] and in data set [4] was inactive.
As for `COc1nsnc1OCCOCCOCCOCCOc1nsnc1OC`, the solubility result in [9] is “Insoluble”.
`COc1nsnc1OCC[N+](C)(C)C`: the inhibition entry in data set [10] and in [11] was “Active” throughout. For the same compound, the outcome in [3] and in data set [4] was inactive.
Consider `COc1nsnc1OCCOCCOCCO`, for which the result in data set [1], in data set [2], in data set [3] and in [4] was inactive.
On to `COc1nsnc1OCCOCCOCc1ccccc1`, for which the solubility result in data set [9] was “Insoluble”.
